Laboratory results published in publication PMC8066331, “Anticancer Activity of Triazolo-Thiadiazole Derivatives and Inhibition of AKT1 and AKT2 Activation” (Pharmaceutics, 2021).

Columns and labels:
PC-3 = experiment: MTT in vitro antiproliferative assay, PC-3; type: cell-based; details: Homo sapiens, PC-3, MTT; for IC50: 48 h, 50% cell death, read-out: IC50; for GI50 / IC (TGI): 48 h drug exposure; for GI50: read-out: GI50; for IC (TGI): read-out: TGI
From the text: (§1) The in vitro antiproliferative activities of the novel triazolo[3,4-b]thiadiazole derivatives were estimated in ten well-established human cancer cell lines including three ovarian (SKOV-3, UWB 1.289, and UWB 1.289+BRCA1), five colorectal adenocarcinoma (DLD-1, HT-29, LS174T, LoVo, and SW403), and two prostate cancer cell lines (PC-3 and DU-145). All cancer cell lines were obtained from the American Type Culture Collection (ATCC) and cultivated in different culture media according to the instructions. The required growth mediums were supplemented with 10% fetal bovine serum and 1% streptomycin/penicillin. All cancer cell lines were cultured as monolayers and maintained at 37 °C, 5% CO2 in humidified air.
(§2) Stock solutions of all tested compounds were prepared by dissolving the required amount of substances in the DMSO solvent to reach the desired concentration of 15 mM.
(§3) To evaluate the in vitro antiproliferative activity of the triazolo[3,4-b]thiadiazole derivatives, 3-(4,5-dimethylthiazol-2-yl)-2,5-diphenyltetrazolium bromide (MTT) assay was assessed. According to the protocol, cells were firstly seeded into a 96-well plate at a density of 8 × 10^3 cells and grown for 24 h at 37 °C, 5% CO2 in humidified air. Subsequently, cells were treated with the tested compounds in a specific range of drug concentrations (1–100 μΜ). Following 48 h of drug exposure, the culture media were discarded and replaced with 100 μL of fresh medium. Afterwards, 50 μL of dissolved MTT in phosphate-buffered saline (PBS) solution (5 mg/mL) were added in each well and cells were incubated for 3 h at 37 °C, 5% CO2 in humidified air. Incubation time was followed by MTT discard and the addition of 100 μL of DMSO solvent so that the formazan crystals could be dissolved. The absorbance of the converted dye was immediately measured at a wavelength of 540 nm on an ELISA reader (VersaMax Microplate Reader, Orleans, CA, USA).
(§4) The in vitro anticancer effect of a tested compound on cell viability was determined by three dose–response parameters termed GI50, TGI, and IC50. More specifically, the GI50 value indicates the required concentration of the compound that impels 50% cell growth inhibition, the TGI value corresponds to the concentration that induces 100% cell growth inhibition, and the IC50 value is the concentration that causes 50% cell death. The two parameters GI50 and TGI represent the cytostatic activity, whereas IC50 reflects the cytotoxic effect of a drug. To estimate the three parameters, nine absorbance measurements were required including control 24 h (Ct24), control 72 h (Ct72), and the mean of cell survival in all seven drug concentrations (Tt72). The percentage growth inhibition was calculated according to National Cancer Institute’s (NCI) protocol: [(Tt72x) − (Ct24)/(Ct72) − (Ct24)] × 100 for concentrations for which Tt72x > Ct24 and [(Tt72x) − (Ct24)/Ct24] × 100 for concentrations for which Tt72x < Ct24. GI50 was calculated from [(Tt72x) − (Ct24)/(Ct72) − (Ct24)] × 100 = 50, TGI was calculated from [(Tt72x) − (Ct24)/(Ct72) − (Ct24)] × 100 = 0, and IC50 was calculated from [(Tt72x) − (Ct24)/Ct24] × 100 = 50. All the experiments were carried out in triplicate.

In vivo acute toxicity = details: both sexes, mouse, in vivo, ip; CB17 SCID mice, single i.p. injection, 30 days observation, estimated graphically
Description: (§5) CB17 severe combined immunodeficient (SCID) male and female mice were used for toxicity and antitumor activity studies. Mice were obtained from National Center for Scientific Research (NCSR) Demokritos, Institute of Biology, Athens, Greece. CB17 SCID mice were fed water and an irradiated standard rodent diet ad libitum and housed under specific pathogen-free conditions. For ethical reasons, the weight and tumor volumes of the animals were measured twice a week during the experiment. In case of cachexia, suffering, or increase in the tumor volume up to 2000 mm^3, the animals were sacrificed by cervical disruption.
(§6) For intraperitoneal (i.p.) treatment, stock solutions of the 3 tested compounds were prepared immediately before use. They were suspended in corn oil in the desired concentrations following initial dissolution in 10% dimethyl sulfoxide (DMSO). […] Briefly, the acute toxicity of the tested compounds was assessed for lethality in CB17 SCID mice and determined as previously described. […] Each dosage comprised a group of ten mice, including males and females, that received single i.p. injections.

CB17 SCID mice = experiment: In vivo acute toxicity; details: single i.p. injection, 30 days observation, estimated graphically
Description: as §5, §6

SKOV-3 = experiment: MTT in vitro antiproliferative assay, SKOV-3; type: cell-based; details: Homo sapiens, SK-OV-3, SKOV-3, MTT; for IC50: 48 h, concentration causing 50% cell death, read-out: IC50; for GI50 / IC (TGI): 48 h drug exposure; for GI50: read-out: GI50; for IC (TGI): read-out: TGI
From the text: as §1, §2, §3, §4

HT-29 = experiment: MTT in vitro antiproliferative assay, HT-29; type: cell-based, human; details: HT-29, MTT; for IC50 / GI50: Homo sapiens; for IC50: 48 h, 50% cell death, read-out: IC50; for GI50: read-out: GI50
From the text: as §1, §2, §3, §4

DU-145 = experiment: MTT in vitro antiproliferative assay, DU-145; type: cell-based, human; details: DU-145, MTT; for TGI / GI50: 48 h drug exposure; for IC50 / GI50: Homo sapiens; for IC50: 48 h, 50% cell death, read-out: IC50; for GI50: read-out: GI50
From the text: as §1, §2, §3, §4

SMILES	IC50 (PC-3) [µM]	GI50 (PC-3) [µM]	IC (TGI) (PC-3) [µM]	LD50 at 30 days (In vivo acute toxicity) [mg/kg]	LD10 (CB17 SCID mice) [mg/kg]	IC50 (SKOV-3) [µM]	GI50 (SKOV-3) [µM]	IC (TGI) (SKOV-3) [µM]	IC50 (HT-29) [µM]	GI50 (HT-29; 48 h drug exposure) [µM]	TGI (DU-145) [μΜ]	IC50 (DU-145) [µM]	GI50 (DU-145) [µM]	TGI (HT-29; 48 h drug exposure) [μΜ]
COc1cc(Cc2nnc3sc(C=Cc4ccc(F)cc4)nn23)c(S(=O)(=O)N(C)C)cc1OC [KA25]	> 100	14 ± 1	22 ± 0.8	360	200	85 ± 2.1	15 ± 0.5	50 ± 1.5	> 100	1 ± 0.3	13.2 ± 0.5	27 ± 0.3	12.8 ± 1.3	
COc1cc(Cc2nnc3sc(C=Cc4ccc(Cl)cc4)nn23)c(S(=O)(=O)N(C)C)cc1OC [KA26]	> 100	42.5 ± 1.5	> 100	160	100	> 100	20 ± 0.5	> 100	> 100	2 ± 0.76	70 ± 1.3	> 100	7 ± 1	
COc1cc(Cc2nnc3sc(-c4cc([N+](=O)[O-])ccc4[N+](=O)[O-])nn23)c(S(=O)(=O)N(C)C)cc1OC [KA39]	12 ± 0.1	5 ± 0.15	8 ± 0.1	100	70	25 ± 1.4	7 ± 0.2	12 ± 0.8	19.5 ± 0.9	11.5 ± 0.8	8 ± 0.4	10.3 ± 1.8	5.8 ± 0.2	15.9 ± 0.55
